Experimental data published in ChEMBL document CHEMBL1201862, “PubChem BioAssay data set” (2004).
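Method: 48-hour compound exposure of cells in 96-well plates, five concentrations, linear interpolation of endpoints. GI50 = concentration required for 50% inhibition of growth.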 Active and inactive are the calls of the source. No stated cut-off is given here; in the data, active = GI50 up to about 1.1 µM and inactive = higher.

Columns and labels:
Assay in all cases: DTP human tumour cell line panel, 48 h
IGROV-1 = tested on: IGROV-1
NCI-H460 = tested on: NCI-H460
RPMI-8226 = tested on: RPMI-8226
MOLT-4 = tested on: MOLT-4
SW-620 = tested on: SW-620
SK-MEL-5 = tested on: SK-MEL-5
ACHN = tested on: ACHN
SK-MEL-28 = tested on: SK-MEL-28
MCF7 = tested on: MCF7
K562 = tested on: K562
MDA-MB-435 = tested on: MDA-MB-435
HOP-62 = tested on: HOP-62
OVCAR-8 = tested on: OVCAR-8
MDA-MB-231 = tested on: MDA-MB-231
CAKI-1 = tested on: CAKI-1
SF-295 = tested on: SF-295
HCT-15 = tested on: HCT-15
786-0 = tested on: 786-0
CCRF-CEM = tested on: CCRF-CEM
A498 = tested on: A498
HCT-116 = tested on: HCT-116
SN12C = tested on: SN12C
COLO 205 = tested on: COLO 205
UO-31 = tested on: UO-31
Hs-578T = tested on: Hs-578T
SF-539 = tested on: SF-539
DU-145 = tested on: DU-145
HOP-92 = tested on: HOP-92
UACC-257 = tested on: UACC-257
OVCAR-5 = tested on: OVCAR-5
PC-3 = tested on: PC-3
RXF 393 = tested on: RXF 393
T47D = tested on: T47D
LOX IMVI = tested on: LOX IMVI
SNB-75 = tested on: SNB-75
OVCAR-3 = tested on: OVCAR-3
NCI/ADR-RES = tested on: NCI/ADR-RES
SF-268 = tested on: SF-268
HCC 2998 = tested on: HCC 2998
HL-60 = tested on: HL-60
A549 = tested on: A549
NCI-H226 = tested on: NCI-H226
SR = tested on: SR
NCI-H23 = tested on: NCI-H23
HT-29 = tested on: HT-29
OVCAR-4 = tested on: OVCAR-4
SK-OV-3 = tested on: SK-OV-3
NCI-H522 = tested on: NCI-H522
SNB-19 = tested on: SNB-19
EKVX = tested on: EKVX
MDA-N = tested on: MDA-N
Malme-3M = tested on: Malme-3M
U-251 = tested on: U-251
UACC-62 = tested on: UACC-62
SK-MEL-2 = tested on: SK-MEL-2
KM12 = tested on: KM12
TK-10 = tested on: TK-10
M14 = tested on: M14
BT-549 = tested on: BT-549

## COc1ccc(-n2c(Cn3nnc(-c4cccnc4)n3)nn(C3OC(COC(=O)c4ccccc4)C(OC(=O)c4ccccc4)C3OC(=O)c3ccccc3)c2=S)cc1 (centres undefined)
IGROV-1
  GI50: 32.4 µM (inactive)
NCI-H460
  GI50: > 100 µM (inactive)
RPMI-8226
  GI50: > 100 µM (inactive)
MOLT-4
  GI50: > 100 µM (inactive)
SW-620
  GI50: > 100 µM (inactive)
SK-MEL-5
  GI50: > 100 µM (inactive)
ACHN
  GI50: > 100 µM (inactive)
SK-MEL-28
  GI50: > 100 µM (inactive)
MCF7
  GI50: > 100 µM (inactive)
K562
  GI50: > 100 µM (inactive)
MDA-MB-435
  GI50: > 100 µM (inactive)
HOP-62
  GI50: > 100 µM (inactive)
OVCAR-8
  GI50: > 100 µM (inactive)
MDA-MB-231
  GI50: 49 µM (inactive)
CAKI-1
  GI50: > 100 µM (inactive)
SF-295
  GI50: > 100 µM (inactive)
HCT-15
  GI50: > 100 µM
786-0
  GI50: > 100 µM (inactive)
CCRF-CEM
  GI50: > 100 µM (inactive)
A498
  GI50: > 100 µM (inactive)
HCT-116
  GI50: > 100 µM (inactive)
SN12C
  GI50: > 100 µM (inactive)
COLO 205
  GI50: > 100 µM (inactive)
UO-31
  GI50: > 100 µM (inactive)
Hs-578T
  GI50: > 100 µM (inactive)
SF-539
  GI50: > 100 µM (inactive)
DU-145
  GI50: > 100 µM (inactive)
HOP-92
  GI50: > 100 µM (inactive)
UACC-257
  GI50: > 100 µM (inactive)
OVCAR-5
  GI50: > 100 µM (inactive)
PC-3
  GI50: > 100 µM (inactive)
RXF 393
  GI50: > 100 µM (inactive)
T47D
  GI50: > 100 µM (inactive)
LOX IMVI
  GI50: > 100 µM (inactive)
SNB-75
  GI50: > 100 µM (inactive)
OVCAR-3
  GI50: > 100 µM (inactive)
NCI/ADR-RES
  GI50: > 100 µM (inactive)
SF-268
  GI50: > 100 µM (inactive)
HCC 2998
  GI50: > 100 µM (inactive)
HL-60
  GI50: > 100 µM (inactive)
A549
  GI50: > 100 µM (inactive)
NCI-H226
  GI50: 14.2 µM (inactive)
SR
  GI50: > 100 µM (inactive)
NCI-H23
  GI50: > 100 µM (inactive)
HT-29
  GI50: 50.9 µM (inactive)
OVCAR-4
  GI50: > 100 µM (inactive)
SK-OV-3
  GI50: > 100 µM (inactive)
NCI-H522
  GI50: > 100 µM (inactive)
SNB-19
  GI50: 74 µM (inactive)
EKVX
  GI50: 39.4 µM (inactive)
MDA-N
  GI50: > 100 µM (inactive)
Malme-3M
  GI50: > 100 µM (inactive)
U-251
  GI50: > 100 µM (inactive)
UACC-62
  GI50: > 100 µM (inactive)
SK-MEL-2
  GI50: > 100 µM (inactive)
KM12
  GI50: > 100 µM (inactive)
TK-10
  GI50: > 100 µM (inactive)
M14
  GI50: > 100 µM (inactive)
BT-549
  GI50: > 100 µM (inactive)
